Reference: patent publication US5648366A, “Substituted pyrrolidin-3-yl-alkyl-piperidines” (Merrell Pharmaceuticals Inc., priority 1995, dated 1997)

Experiments:
NK2 receptor = target: T1, NK2 receptor (Bos taurus, UniProt P05363); assay: Antagonism of NK2 receptor mediated (NKA-induced) phosphatidylinositol turnover in SKLKB82#3 cells; assay type: cell-based
T1 construct: expressed in transfected cells; host or cells: SKLKB82#3 cells (murine B82 fibroblasts by own knowledge)
T1 sequence (P05363 1-384): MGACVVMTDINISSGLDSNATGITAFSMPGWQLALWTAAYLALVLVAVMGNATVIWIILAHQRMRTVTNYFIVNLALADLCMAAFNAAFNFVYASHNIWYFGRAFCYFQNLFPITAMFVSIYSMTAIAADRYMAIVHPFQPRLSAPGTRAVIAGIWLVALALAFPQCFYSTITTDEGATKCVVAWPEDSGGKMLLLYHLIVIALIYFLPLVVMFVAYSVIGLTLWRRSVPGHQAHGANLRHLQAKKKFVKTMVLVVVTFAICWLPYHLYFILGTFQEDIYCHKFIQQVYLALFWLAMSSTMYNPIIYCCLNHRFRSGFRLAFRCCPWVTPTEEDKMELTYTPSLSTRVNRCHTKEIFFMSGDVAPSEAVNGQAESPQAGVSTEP
Procedure: ANTAGONISM OF NK1 AND NK2 RECEPTOR MEDIATED PHOSPHATID[…]
Tachykinin-mediated inositol phosphate accumulation was measured in UC11 or SKLKB82#3 cells in the presence and absence of NK1 or NK2 receptor antagonists, respectively. Tissues were incubated in Krebs-Henseleit buffer at 37° C. with 95% O2 -5% CO2 gassing. Tissues were then incubated with fresh buffer containing 100 μCi of myo-[2-^3 H(N)] inositol at 37° C. for 60 min with gentle gassing. After washing twice in 5 ml room temperature buffer containing 10 mM LiCl, tissues were incubated for 30 min at room temperature with a buffer change at 15 min. Buffer was removed and Krebs-Henseleit buffer (containing 40 μg/ml bacitracin, 4 μg/ml each of leupeptin and chymostatin, 0.1% bovine serum albumin and 10 mM each of thiorphan and LiCl) added. After 15 min, SP was added to UC11 cells or NKA to SKLKB82#3 cells at various concentrations to start the reaction. After incubation for 60 min at room temperature the reaction was terminated by addition of 930 μl chloroform: methanol (1:2 by volume) to each tube, followed by 310 μl chloroform and 310 μl doubly distilled water. Samples were vortexed, centrifuged, and 0.9 ml of the aqueous (top) phase removed and added to 2 ml ddH2 O. The mixture was vortexed and loaded onto a 50% Bio-Rad AG 1-X8 (formate form, 100-200 mesh) exchange column (Bio-Rad Laboratories, Hercules, Calif.). The columns were washed, in order, with: 1) 10 ml doubly distilled water, 2) 5 ml of 5 mM disodium tetraborate/60 mM sodium formate, and 3) 5 ml of 1M ammonium formate/0.1M formic acid. The third elution was collected and 1 ml counted in 7 ml scintillation fluid. A 50 μl aliquot of the organic (bottom) phase was removed, dried in a scintillation vial and counted in 7 ml scintillation fluid.
The ratio of DPM in the aqueous phase aliquot (total inositol phosphates) to the DPM in the 50 μl organic phase aliquot (total [^3 H]inositol incorporated) was calculated for each sample. Data are expressed as a percent of agonist-induced accumulation of [^3 H]-inositol phosphates over basal levels. The ratios in the presence of test compound and/or standards were compared to the ratios for control samples (i.e. no stimulating agonist). Dose-response graphs were constructed and the abilities of the test compounds to inhibit tachykinin-induced phosphatidyinositol turnover determined with the aid of a computer program. […] Data is expressed as percent stimulation of total inositol phosphate accumulation over basal levels and normalized to the maximum response produced by SP. […] Schild analysis is performed using dose response curves (such as those presented in FIGS. 1a and 1b) to obtain a value indicative of the strength of a competitive antagonist and is expressed as the pA2, which is the negative logarithm of the molar concentration of antagonist which reduces the effect of a dose of agonist to one-half of that expected at the dose of agonist.

NK1 receptor = NK1 receptor (Cavia porcellus, UniProt P30547); assay: Antagonism of SP-induced plasma protein extravasation in guinea pig trachea; assay type: in vivo; set-up: SP-induced plasma protein extravasation in guinea pig trachea; from tissue; host or cells: living guinea pig; trachea and primary bronchi; conditions: i.v.
Sequence of NK1 receptor (P30547 whole entry): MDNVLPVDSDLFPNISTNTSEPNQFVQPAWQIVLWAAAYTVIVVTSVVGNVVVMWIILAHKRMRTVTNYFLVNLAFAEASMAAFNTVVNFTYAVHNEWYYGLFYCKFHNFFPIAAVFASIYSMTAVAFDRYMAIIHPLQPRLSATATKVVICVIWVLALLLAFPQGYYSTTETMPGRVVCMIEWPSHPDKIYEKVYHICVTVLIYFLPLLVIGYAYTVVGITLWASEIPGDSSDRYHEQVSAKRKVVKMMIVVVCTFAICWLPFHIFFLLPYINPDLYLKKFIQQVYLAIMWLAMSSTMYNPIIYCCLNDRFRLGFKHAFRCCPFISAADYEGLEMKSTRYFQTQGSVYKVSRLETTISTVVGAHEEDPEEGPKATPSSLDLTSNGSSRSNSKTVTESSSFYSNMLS
Procedure: ANTAGONISM OF SP-INDUCED PLASMA PROTEIN EXTRAVASATION IN GUINEA PIG TRACHEA
SP-induced protein leakage through postcapillary venules was assessed by measuring Evans Blue dye accumulation in guinea pig trachea. Animals were anesthetized with pentobarbital then injected with Evans Blue dye (20 mg/kg, i.v., prepared in 0.9% NaCl solution). One minute after dye administration, the antagonist was administered (i.v.) followed by SP (0.3 nmole/kg, i.v.) and, after 5 min, excess dye removed from the circulation by transcardiac perfusion with 50 ml 0.9% NaCl solution. The trachea and primary bronchi were removed, blotted dry and weighed. Dye quantitation was performed spectrophotometrically ([…]) after extracting tissues in formamide for 24 hr at 50° C. Values were subtracted from background (dye only, no agonist). ED50 (dose of compound which inhibits SP-induced plasma protein extravasation by 50%) was calculated from linear regression analysis.

With COc1cc(C(=O)N2CCC(CCN3CCC(C(N)=O)(c4ccccc4)CC3)(c3ccc(Cl)c(Cl)c3)C2)cc(OC)c1OC (stereo not shown) [Example 3, 1-[2-[3-(3,4-dichloro-phenyl)-1-(3,4,5-trimethoxy-benzoyl)-pyrrolidin-3-yl]-ethyl]-4-phenyl-piperidine-4-carboxylic acid amide] the “antagonism of NKA induced PI turnover (in words, FIG. 1b)” value (NK2 receptor; SKLKB82#3 cells) was “dose related antagonism”, the “agonist activity, PI turnover in SKLKB82#3 cells (in words)” value (NK2 receptor; compound alone) was “no agonist activity” and the “antagonism of SP-induced plasma protein extravasation (in words, FIG. 2)” value (NK1 receptor) was “dose related antagonism”. For the same compound, the “relative potency as NK-1 receptor antagonists (in words)” value (NK1 receptor; Example 3 versus Example 20A) was “equipotent”.
